{"source": "patent US12390537B2", "about": "“Compositions of polymeric microdevices and methods of use thereof in cancer immunotherapy” (Massachusetts Institute of Technology, priority 2020, dated 2025)", "key": {"interleukin-6 (IL-6)": {"test_system": "interleukin-6 (IL-6)", "assay": "Systemic IL-6 response of orthotopic 4T1 tumor-bearing mice", "format": "in vivo", "conditions": "day 1 to 7; cGAMP-MPs single injection, cGAMP-S four injections"}, "IFNγ+CD8+ T cells": {"test_system": "IFNγ+CD8+ T cells", "assay": "Flow cytometry of IFNγ+CD8+ T cells in serum, B16F10 model", "format": "in vivo, mice", "experimental": "To stain the intracellular marker, e.g., IFN-γ, cells were pre-stimulated with cell stimulation cocktail (eBioscience, cat. no. 00-4970-93) for 4-6 h, fixed and permeabilized using fixation/permeabilization solution kit (BD, cat. no. 554714), and then stained with both anti-IFN-γ and other surface antibodies. […] Flow cytometry data were acquired on an LSRFortessa cell analyzer (BD) and analyzed using FlowJo software.\nTo study whether activation of STING in the TME triggers systemic antitumor immunity, mouse serum was collected from the antitumor efficacy study of B16F10 melanoma model (FIG. 3D) 21 and 28 days after tumor inoculation and analyzed by flow cytometry. cGAMP-MPs and 4×cGAMP-S treatments increased 5.1- and 4.9-fold of IFNγ+CD8+ T cells in serum at day 21 compared to the untreated group (FIG. 5A). […]"}, "4T1 lung metastasis": {"test_system": "4T1 lung metastasis", "assay": "Treatment of metastatic 4T1 model", "format": "in vivo, mice", "conditions": "day 34", "experimental": "2×10^5 4 T1 cells were injected into the mammary fat pad. Seven days after injection, tumor-bearing mice were divided into 3 experimental groups: untreated, 3×cGAMP-S, and 1×cGAMP-S plus cGAMP-MPs (10m of cGAMP-S, 5 PLGA-1 microdevices containing 10 μg of cGAMP, and 5 PLGA-2 microdevices containing 10 μg of cGAMP). The primary tumor was surgically removed at day 18 to extend survival. Mice were euthanized at day 34. Lung tissues were stained with India ink and fixed in Fekete's solution. Metastatic foci on the lung were counted under a microscope. Unstained lung tissues were fixed in formalin and stained by H&E. Quantitation of metastatic tumor cells of H&E stained sections was performed using an Aperio ImageScope using tuned positive pixel count algorithm. Briefly, input hue value in the positive pixel count algorithm was tuned to positively select normal lung tissues in red to orange range, while the tumors were negatively selected in purple. Percentage area of tumor metastasis per total lung area was calculated by the number of negative counts (purple)/the number of total counts (purple, orange, and red)×100%. Three H&E sections per lung at different depths were analyzed and averaged to obtain the percentage of tumor over the lung for one mouse. Four or five mice were analyzed for each group."}}}
{"compound": "Nc1nc2c(ncn2[C@@H]2O[C@@H]3COP(=O)(O)O[C@H]4[C@@H](O)[C@H](n5cnc6c(N)ncnc65)O[C@@H]4COP(=O)(O)O[C@H]3[C@H]2O)c(=O)[nH]1", "note": "[cGAMP-S, 3′3′-cGAMP]", "values": [{"measurement": "systemic IL-6 levels", "setting": "interleukin-6 (IL-6)", "value": "elevated"}, {"measurement": "increase of IFNγ+CD8+ T cells in serum compared to untreated", "setting": "IFNγ+CD8+ T cells; day 21, cGAMP-MPs single injection, cGAMP-S four injections", "value": 4.9, "unit": "fold"}, {"measurement": "number of IFNγ+CD8+ T cells in serum", "setting": "IFNγ+CD8+ T cells; day 28 versus day 21", "value": "remained at an identical level"}, {"measurement": "number of metastatic foci on lung surfaces", "setting": "4T1 lung metastasis; cGAMP-MPs single injection day 7, cGAMP-S days 7, 11, 15", "value": "significantly decreased"}, {"measurement": "relative area of tumors in the lungs", "setting": "4T1 lung metastasis; compared to untreated", "value": "reduced"}]}
